By inhibition is commonly meant the percentage by which the read-out fell short of the control.

This is an account of results in ChEMBL document CHEMBL1124020, “Synthesis and antiherpetic activity of (+/-)-9-[[(Z)-2-(hydroxymethyl)cyclopropyl]methyl]guanine and related compounds” (1988).

Converted amounts (≈) assume the structure as drawn. The source made the active and inactive calls. The rule behind the calls is not given here.

The target in one assay is T1, DNA polymerase catalytic subunit (Herpes simplex virus (type 1 / strain 17)) (UniProt P04293).
T1 sequence (whole entry): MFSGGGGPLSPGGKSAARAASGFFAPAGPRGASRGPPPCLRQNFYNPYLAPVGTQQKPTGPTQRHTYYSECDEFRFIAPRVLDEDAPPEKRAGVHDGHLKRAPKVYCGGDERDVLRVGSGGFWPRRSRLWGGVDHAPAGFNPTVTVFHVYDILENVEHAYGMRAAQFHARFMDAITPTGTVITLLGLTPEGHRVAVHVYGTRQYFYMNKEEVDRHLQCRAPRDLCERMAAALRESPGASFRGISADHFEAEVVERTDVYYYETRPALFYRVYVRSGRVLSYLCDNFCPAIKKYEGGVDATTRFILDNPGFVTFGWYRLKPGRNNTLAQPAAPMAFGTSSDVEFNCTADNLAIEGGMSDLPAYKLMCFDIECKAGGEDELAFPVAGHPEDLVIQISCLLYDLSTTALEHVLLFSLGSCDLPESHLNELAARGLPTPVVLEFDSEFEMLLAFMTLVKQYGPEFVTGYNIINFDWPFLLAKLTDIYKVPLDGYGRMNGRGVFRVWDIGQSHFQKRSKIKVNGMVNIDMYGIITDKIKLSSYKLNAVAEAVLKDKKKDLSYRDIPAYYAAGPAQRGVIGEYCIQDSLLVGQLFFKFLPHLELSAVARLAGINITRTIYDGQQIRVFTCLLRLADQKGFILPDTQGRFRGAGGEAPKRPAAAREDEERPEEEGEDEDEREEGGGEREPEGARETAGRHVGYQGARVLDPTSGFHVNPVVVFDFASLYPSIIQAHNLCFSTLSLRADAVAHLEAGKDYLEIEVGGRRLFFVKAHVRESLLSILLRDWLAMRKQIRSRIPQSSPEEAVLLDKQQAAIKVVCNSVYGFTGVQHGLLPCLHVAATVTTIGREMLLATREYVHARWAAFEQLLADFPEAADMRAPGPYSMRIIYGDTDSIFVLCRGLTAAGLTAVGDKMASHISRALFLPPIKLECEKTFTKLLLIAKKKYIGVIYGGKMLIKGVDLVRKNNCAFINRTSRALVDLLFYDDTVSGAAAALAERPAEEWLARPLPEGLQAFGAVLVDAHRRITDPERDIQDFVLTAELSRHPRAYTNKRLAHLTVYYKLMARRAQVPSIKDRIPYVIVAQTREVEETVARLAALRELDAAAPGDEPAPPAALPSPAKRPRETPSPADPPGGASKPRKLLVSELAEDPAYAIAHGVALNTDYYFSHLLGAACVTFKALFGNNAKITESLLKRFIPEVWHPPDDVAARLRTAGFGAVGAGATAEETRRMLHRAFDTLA
Put plainly: Percentage of monophosphates (MP) in the second step of staggered assay mixture from step 1 was incubated with GMP kinase and crude extract of HSV-1 infected HeLa cells over night. The assay is classed as functional, cell-based.
Conditions: not given
Take `Nc1nc(O)c2ncn(C/C=C/CO)c2n1`: the MP turned out to be 9%.
On the same count and under the same terms, in the case of `Nc1nc(O)c2ncn(C/C=C\CO)c2n1` it was 12%.
Same read-out and setting: in the case of `Nc1nc(O)c(N=O)c(NC[C@H]2C[C@@H]2CO)n1` it was 9%.
On the same count and under the same terms, with `Nc1nc(O)c2ncn(CC#CCO)c2n1` the figure was 0%.
Consider `Nc1nc2c(ncn2COCCO)c(=O)[nH]1` [ACYCLOVIR], for which the MP was 3%.
The same measure, in the same setting: in the case of `Nc1nc(O)c2ncn(C[C@H]3CC3(CO)CO)c2n1` it was 0%; in that of `Nc1nc(O)c2ncn(C[C@H]3C[C@@H]3CO)c2n1`, 9%.
On the same count and under the same terms, in the case of `Nc1nc(O)c2ncn(C[C@H]3C[C@H]3CO)c2n1` it was 0%.
Turning to `Nc1ncnc2c1ncn2C[C@H]1C[C@@H]1CO`, the MP amounted to 0%.
Same read-out and setting: with `Nc1nc(O)c2ccn(C[C@H]3C[C@H]3CO)c2n1` the figure was 9%.

In another assay the target is T1, DNA polymerase catalytic subunit (Herpes simplex virus (type 1 / strain 17)). Put plainly: Percentage of diphosphates (DP) in the second step of staggered assay mixture from step 1 was incubated with GMP kinase and crude extract of HSV-1 infected HeLa cells over night. The class given is functional, cell-based.
Conditions: not given
With `Nc1nc(O)c2ncn(C/C=C/CO)c2n1`, the DP was determined as 0%.
As for `Nc1nc(O)c2ncn(C/C=C\CO)c2n1`, the DP is 16%.
Still for that read-out and setting: with `Nc1nc(O)c(N=O)c(NC[C@H]2C[C@@H]2CO)n1` the figure was 0%.
Regarding `Nc1nc(O)c2ncn(CC#CCO)c2n1`, the DP turned out to be 0%.
On the same count and under the same terms, with `Nc1nc2c(ncn2COCCO)c(=O)[nH]1` [ACYCLOVIR] the figure was 9%.
Still for that read-out and setting: with `Nc1nc(O)c2ncn(C[C@H]3CC3(CO)CO)c2n1` the figure was 0%.
On the same count and under the same terms, in the case of `Nc1nc(O)c2ncn(C[C@H]3C[C@@H]3CO)c2n1` it was 48%; in that of `Nc1nc(O)c2ncn(C[C@H]3C[C@H]3CO)c2n1`, 0%.
Consider `Nc1ncnc2c1ncn2C[C@H]1C[C@@H]1CO`, for which the DP worked out at 0%.
On the same count and under the same terms, with `Nc1nc(O)c2ccn(C[C@H]3C[C@H]3CO)c2n1` the figure was 0%.

Tested on in a further assay: not listed separately
Put plainly: (§1) Inhibition of DNA polymerase. Also on record: concentration or dose not given beside the values. The conditions noted are these: concentration not given here.
On to `Nc1nc(O)c2ncn(C/C=C/CO)c2n1`, for which the inhibition was 0%.
As to `Nc1nc(O)c2ncn(C/C=C\CO)c2n1`, the inhibition was determined as 8%.
Compound `Nc1nc(O)c(N=O)c(NC[C@H]2C[C@@H]2CO)n1` had an inhibition of 5%.
The same measure, in the same setting: with `Nc1nc(O)c2ncn(CC#CCO)c2n1` the figure was 5%.
Still for that read-out and setting: with `Nc1nc2c(ncn2COCCO)c(=O)[nH]1` [ACYCLOVIR] the figure was 40%; with `Nc1nc(O)c2ncn(C[C@H]3CC3(CO)CO)c2n1`, 0%; with `Nc1nc(O)c2ncn(C[C@H]3C[C@@H]3CO)c2n1`, 30%.
On the same count and under the same terms, in the case of `Nc1nc(O)c2ncn(C[C@H]3C[C@H]3CO)c2n1` it was 14%.
`Nc1ncnc2c1ncn2C[C@H]1C[C@@H]1CO` showed an inhibition of 0%.
For the compound `Nc1nc(O)c2ccn(C[C@H]3C[C@H]3CO)c2n1`, the inhibition was 0%.

The next assay has as its target T1, DNA polymerase catalytic subunit (Herpes simplex virus (type 1 / strain 17)). The assay is described as §1. The arrangement: concentration or dose not given beside the values. The following applies: concentration not given here.
In turn, `Nc1nc(O)c2ncn(C/C=C/CO)c2n1` returned an inhibition of 0%.
On the same count and under the same terms, with `Nc1nc(O)c2ncn(C/C=C\CO)c2n1` the figure was 12%; with `Nc1nc(O)c(N=O)c(NC[C@H]2C[C@@H]2CO)n1`, 9%; with `Nc1nc(O)c2ncn(CC#CCO)c2n1`, 0%.
Still for that read-out and setting: in the case of `Nc1nc2c(ncn2COCCO)c(=O)[nH]1` [ACYCLOVIR] it was 79%; in that of `Nc1nc(O)c2ncn(C[C@H]3CC3(CO)CO)c2n1`, 0%.
Still for that read-out and setting: with `Nc1nc(O)c2ncn(C[C@H]3C[C@@H]3CO)c2n1` the figure was 26%; with `Nc1nc(O)c2ncn(C[C@H]3C[C@H]3CO)c2n1`, 3%; with `Nc1ncnc2c1ncn2C[C@H]1C[C@@H]1CO`, 0%.
As to `Nc1nc(O)c2ccn(C[C@H]3C[C@H]3CO)c2n1`, the inhibition stood at 14%.

The species named for another assay is Oryctolagus cuniculus. Put plainly: (§2) Antiviral activity against HSV-1 cell line (concentration required to prevent viral cytopathic effect in half of primary rabbit kidney cell cultures). The assay is classed as functional. The conditions noted are these: read-out: ED50 (the source's name).
Consider `Nc1nc(O)c2ncn(C/C=C\CO)c2n1`, for which the EC50 was found to be 12 µg/mL (≈ 54.2 µM).
The same measure, in the same setting: in the case of `Nc1nc(O)c2ncn(C[C@H]3CC3(CO)CO)c2n1` it was 50 µg/mL (≈ 188 µM).
On the same count and under the same terms, with `Nc1nc(O)c2ncn(C[C@H]3C[C@H]3CO)c2n1` the figure was 6 µg/mL (≈ 25.5 µM); with `Nc1ncnc2c1ncn2C[C@H]1C[C@@H]1CO`, 50 µg/mL (≈ 228 µM).

The species named for another assay is Oryctolagus cuniculus. Description: Antiviral activity against HSV-1 cell line (concentration required to prevent viral cytopathic effect in half of primary rabbit kidney cell cultures); Not Active at 100 ug/mL. The assay is classed as functional, organism-based.
Conditions: not given
On the technique in general: Cytopathic effects are the visible damage that an infection or toxin causes in cultured cells.
`Nc1nc(O)c2ncn(C/C=C/CO)c2n1`: the ED50 entry was “inactive”.
On the same count and under the same terms, in the case of `Nc1nc(O)c(N=O)c(NC[C@H]2C[C@@H]2CO)n1` it was “inactive”; in that of `Nc1nc(O)c2ncn(CC#CCO)c2n1`, “inactive”; in that of `Nc1nc(O)c2ncn(C[C@H]3C[C@@H]3CO)c2n1`, “inactive”.
On the same count and under the same terms, with `Nc1nc(O)c2ccn(C[C@H]3C[C@H]3CO)c2n1` the entry was “inactive”.

Another assay has as its target T1, DNA polymerase catalytic subunit (Herpes simplex virus (type 1 / strain 17)). Put plainly: Percentage of triphosphates (TP) in the second step of staggered assay mixture from step 1 was incubated with GMP kinase and crude extract of HSV-1 infected HeLa cells over night. The class given is functional, cell-based. The conditions noted are these: Homo sapiens.
In the case of `Nc1nc(O)c2ncn(C/C=C/CO)c2n1`, the TP came to 0%.
The same measure, in the same setting: with `Nc1nc(O)c2ncn(C/C=C\CO)c2n1` the figure was 64%.
Same read-out and setting: in the case of `Nc1nc(O)c(N=O)c(NC[C@H]2C[C@@H]2CO)n1` it was 0%; in that of `Nc1nc(O)c2ncn(CC#CCO)c2n1`, 0%.
On the same count and under the same terms, with `Nc1nc2c(ncn2COCCO)c(=O)[nH]1` [ACYCLOVIR] the figure was 60%.
In the case of `Nc1nc(O)c2ncn(C[C@H]3CC3(CO)CO)c2n1`, the TP stood at 0%.
The same measure, in the same setting: in the case of `Nc1nc(O)c2ncn(C[C@H]3C[C@@H]3CO)c2n1` it was 2%; in that of `Nc1nc(O)c2ncn(C[C@H]3C[C@H]3CO)c2n1`, 76%.
For `Nc1ncnc2c1ncn2C[C@H]1C[C@@H]1CO`, the TP worked out at 0%.
The same measure, in the same setting: in the case of `Nc1nc(O)c2ccn(C[C@H]3C[C@H]3CO)c2n1` it was 0%.

Tested on in the next assay: not listed separately
Description: (§3) Antiviral activity against HSV-2 cell line (concentration required to prevent viral cytopathic effect in half of primary rabbit kidney cell cultures). The following applies: Oryctolagus cuniculus, HSV-2, read-out: ED50.
Take `Nc1nc2c(ncn2COCCO)c(=O)[nH]1` [ACYCLOVIR]: the EC50 worked out at 3 µg/mL (≈ 13.3 µM).

The species named for a further assay is Oryctolagus cuniculus. Description: Antiviral activity against HSV-2 cell line (concentration required to prevent viral cytopathic effect in half of primary rabbit kidney cell cultures); Not Active at 100 ug/mL.
Conditions: not given
The class given is functional, organism-based.
In the case of `Nc1nc(O)c2ncn(C/C=C/CO)c2n1`, the ED50 entry was “inactive”.
On the same count and under the same terms, with `Nc1nc(O)c(N=O)c(NC[C@H]2C[C@@H]2CO)n1` the entry was “inactive”; with `Nc1nc(O)c2ncn(CC#CCO)c2n1`, “inactive”; with `Nc1nc(O)c2ncn(C[C@H]3CC3(CO)CO)c2n1`, “inactive”.
Same read-out and setting: with `Nc1nc(O)c2ncn(C[C@H]3C[C@@H]3CO)c2n1` the entry was “inactive”.
For the compound `Nc1nc(O)c2ccn(C[C@H]3C[C@H]3CO)c2n1`, the ED50 entry was “inactive”.

The species named for the next assay is Oryctolagus cuniculus. The assay is described as §3. The assay is classed as functional. The conditions noted are these: read-out: ED50 (the source's name).
Turning to `Nc1nc(O)c2ncn(C/C=C\CO)c2n1`, the EC50 turned out to be 50 µg/mL (≈ 226 µM).
On the same count and under the same terms, in the case of `Nc1nc(O)c2ncn(C[C@H]3C[C@H]3CO)c2n1` it was 12 µg/mL (≈ 51 µM).
Same read-out and setting: in the case of `Nc1ncnc2c1ncn2C[C@H]1C[C@@H]1CO` it was 50 µg/mL (≈ 228 µM).

Tested on in the next assay: not listed separately
The description is as §2. The conditions noted are these: Oryctolagus cuniculus, read-out: ED50.
On to `Nc1nc2c(ncn2COCCO)c(=O)[nH]1` [ACYCLOVIR], for which the EC50 stood at 3 µg/mL (≈ 13.3 µM).
